These results are taken from patent US8466290B2, “STAT3 inhibitor containing quinolinecarboxamide derivative as active ingredient” (Pharma IP General Incorporated Association, priority 2008, dated 2013).

Bounds are passed on as bounds.

For the first assay, the system named is MDA-MB-435S. Description: MDA-MB-435S cell growth inhibitory activity. The format is cell-based. The following applies: Homo sapiens, compound at 20 μM, 72 hours, read-out: Cell growth inhibitory activity (%). How it is done: […] Each well was washed three times with a medium. Then, after addition of 100 μL/well of a medium and 20 μL/well of CellTiter 96 AQueous One Solution Reagent (Promega Corp.), the cells were incubated at 37° C. for 2 hours in the presence of 5% CO2.
Turning to `O=C(Nc1nnc(-c2ccccc2)o1)c1cc(-c2ccccc2)nc2ccccc12` [Ia-3, 2-phenyl-N-(5-phenyl-1,3,4-oxadiazol-2-yl)-4-quinolinecarboxamide], the inhibition at 20 µM is 53%.

Turning to `COc1ccc2nc(-c3ccccc3)cc(C(=O)Nc3nnc(-c4ccco4)o3)c2c1` [Ia-23, N-[5-(2-furyl)-1,3,4-oxadiazol-2-yl]-6-methoxy-2-phenyl-4-quinolinecarboxamide], the inhibition at 20 µM came out at 50%.

On to `Cc1ccc(-c2cc(C(=O)Nc3nnc(-c4ccco4)o3)c3cccc(C)c3n2)cc1` [Ia-27, N-[5-(2-furyl)-1,3,4-oxadiazol-2-yl]-8-methyl-2-(4-tolyl)-4-quinolinecarboxamide], for which the inhibition at 20 µM is 99%.

Take `Cc1ccc2nc(-c3cccs3)cc(C(=O)Nc3nnc(-c4ccco4)o3)c2c1` [Ia-29, N-[5-(2-furyl)-1,3,4-oxadiazol-2-yl]-6-methyl-2-(2-thienyl)-4-quinolinecarboxamide]: the inhibition at 20 µM was found to be 98%.

On to `O=C(Nc1nnc(-c2ccco2)o1)c1cc(-c2cccs2)nc2ccc(Cl)cc12` [Ia-30, 6-chloro-N-[5-(2-furyl)-1,3,4-oxadiazol-2-yl]-2-(2-thienyl)-4-quinolinecarboxamide], for which the inhibition at 20 µM was greater than 100%.

For the next assay, the system named is STAT3. Nature of the assay: STAT3 transcription inhibition test (reporter gene method, oncostatin M stimulation). Type of assay: cell-based. Conditions: Homo sapiens; compound at 100 μM; STAT3 reporter HeLa stable cell line; oncostatin M 10 ng/mL, 4 hours; read-out: STAT3 transcription inhibitory activity (%). How it is done: The inhibition of STAT3 transcription was evaluated by using STAT3 reporter HeLa stable cell line (Panomics Inc., catalog No. RC0003), a cell line for the reporter gene method, and performing the following method according to the appendix included therein.
STAT3 reporter HeLa stable cell line subcultured and maintained in a Dulbecco's modified Eagle's medium (DMEM) containing 10% fetal bovine serum, 100 units/mL penicillin, and 100 μg/mL streptomycin was inoculated at a concentration of 40000 cells/well to a 96-well plate (white) and attached to the plate by overnight incubation at 37° C. under 5% CO2. After addition of each evaluation compound adjusted to various concentrations (adjusted with a DMSO solution), the cells were precultured for 1 hour. Then, oncostatin M for activating STAT3 was added at a final concentration 10 ng/mL, and the cells were further cultured at 37° C. under 5% CO2 for 4 hours. Luciferase activity derived from the cells was determined using Steady-Glo Luciferase Assay System (Promega Corp.), and STAT3 transcriptional activity scores were calculated according to the following formula: STAT3 transcriptional activity score (%)=100×(Lchem−L0)/(LDMSO−L0) Lo: luminescence intensity obtained without stimulation with oncostatin M Lchem: luminescence intensity obtained by the addition of a test sample LDMSO: luminescence intensity obtained by the addition of only a solvent for dissolving a test sample
On the technique in general: A reporter such as luciferase makes a cellular process visible.
As to `O=C(Nc1nnc(-c2ccoc2)o1)c1cc(-c2ccccc2)nc2ccccc12` [Ia-2, N-[5-(3-furyl)-1,3,4-oxadiazol-2-yl]-2-phenyl-4-quinolinecarboxamide], the inhibition at 100 µM was greater than 100%.

For the molecule `O=C(Nc1nnc(-c2ccccc2)o1)c1cc(-c2ccccc2)nc2ccccc12` [Ia-3, 2-phenyl-N-(5-phenyl-1,3,4-oxadiazol-2-yl)-4-quinolinecarboxamide], the inhibition at 100 µM is greater than 100%.

With `O=C(Nc1nnc(-c2ccc(Cl)cc2)o1)c1cc(-c2ccccc2)nc2ccccc12` [Ia-5, N-[5-(4-chlorophenyl)-1,3,4-oxadiazol-2-yl]-2-phenyl-4-quinolinecarboxamide], the inhibition at 100 µM was greater than 100%.

As for `O=C(Nc1nnc(-c2ccc([N+](=O)[O-])cc2)o1)c1cc(-c2ccccc2)nc2ccccc12` [Ia-7, N-[5-(4-nitrophenyl)-1,3,4-oxadiazol-2-yl]-2-phenyl-4-quinolinecarboxamide], the inhibition at 100 µM amounted to 65%.

Turning to `O=C(Nc1nnc(-c2cccnc2)o1)c1cc(-c2ccccc2)nc2ccccc12` [Ia-9, 2-phenyl-N-[5-(3-pyridyl)-1,3,4-oxadiazol-2-yl]-4-quinolinecarboxamide], the inhibition at 100 µM came out at 65%.

Take `O=C(Nc1nnc(-c2ccco2)o1)c1cc(N2CCCCC2)nc2ccccc12` [Ia-14, N-[5-(2-furyl)-1,3,4-oxadiazol-2-yl]-2-piperidino-4-quinolinecarboxamide]: the inhibition at 100 µM is 63%.

As to `O=C(Nc1nnc(-c2ccco2)o1)c1cc(-c2cccc([N+](=O)[O-])c2)nc2ccccc12` [Ia-16, N-[5-(2-furyl)-1,3,4-oxadiazol-2-yl]-2-(3-nitrophenyl)-4-quinolinecarboxamide], the inhibition at 100 µM came to 62%.

For `O=C(Nc1nnc(-c2ccco2)o1)c1cc(-c2ccco2)nc2ccccc12` [Ia-18, 2-(2-furyl)-N-[5-(2-furyl)-1,3,4-oxadiazol-2-yl]-4-quinolinecarboxamide], the inhibition at 100 µM was determined as 68%.

For the molecule `COc1ccc2nc(-c3ccccc3)cc(C(=O)Nc3nnc(-c4ccco4)o3)c2c1` [Ia-23, N-[5-(2-furyl)-1,3,4-oxadiazol-2-yl]-6-methoxy-2-phenyl-4-quinolinecarboxamide], the inhibition at 100 µM amounted to 100%.

With `Cc1c(Cl)ccc2c(C(=O)Nc3nnc(-c4ccco4)o3)cc(-c3ccccc3)nc12` [Ia-26, 7-chloro-N-[5-(2-furyl)-1,3,4-oxadiazol-2-yl]-8-methyl-2-phenyl-4-quinolinecarboxamide], the inhibition at 100 µM stood at 73%.

Take `Cc1ccc(-c2cc(C(=O)Nc3nnc(-c4ccco4)o3)c3cccc(C)c3n2)cc1` [Ia-27, N-[5-(2-furyl)-1,3,4-oxadiazol-2-yl]-8-methyl-2-(4-tolyl)-4-quinolinecarboxamide]: the inhibition at 100 µM is 71%.

On to `Cc1c(Cl)ccc2c(C(=O)Nc3nnc(-c4ccco4)o3)cc(-c3ccco3)nc12` [Ia-28, 7-chloro-2-(2-furyl)-N-[5-(2-furyl)-1,3,4-oxadiazol-2-yl]-8-methyl-4-quinolinecarboxamide], for which the inhibition at 100 µM is greater than 100%.

On to `Cc1ccc2nc(-c3cccs3)cc(C(=O)Nc3nnc(-c4ccco4)o3)c2c1` [Ia-29, N-[5-(2-furyl)-1,3,4-oxadiazol-2-yl]-6-methyl-2-(2-thienyl)-4-quinolinecarboxamide], for which the inhibition at 100 µM came to 65%.

Turning to `O=C(Nc1nnc(-c2ccco2)o1)c1cc(-c2cccs2)nc2ccc(Cl)cc12` [Ia-30, 6-chloro-N-[5-(2-furyl)-1,3,4-oxadiazol-2-yl]-2-(2-thienyl)-4-quinolinecarboxamide], the inhibition at 100 µM amounted to 62%.

On to `O=C(Nc1nnc(-c2ccco2)o1)c1cc(-c2cccs2)nc2c(Cl)cccc12` [Ia-32, 8-chloro-N-[5-(2-furyl)-1,3,4-oxadiazol-2-yl]-2-(2-thienyl)-4-quinolinecarboxamide], for which the inhibition at 100 µM came to 90%.

Take `O=C(Nc1nnc(-c2ccco2)o1)c1cc(-c2ccccc2Cl)nc2ccccc12` [Ia-37, 2-(2-chlorophenyl)-N-[5-(2-furyl)-1,3,4-oxadiazol-2-yl]-4-quinolinecarboxamide]: the inhibition at 100 µM was determined as 100%.

For the molecule `Nc1ccccc1-c1cc(C(=O)Nc2nnc(-c3ccco3)o2)c2ccccc2n1` [Ia-40, 2-(2-aminophenyl)-N-[5-(2-furyl)-1,3,4-oxadiazol-2-yl]-4-quinolinecarboxamide], the inhibition at 100 µM came to 62%.

As to `O=C(Nc1nnc(-c2ccco2)o1)c1cc(-c2ccc(O)cc2)nc2ccccc12` [Ia-50, N-[5-(2-furyl)-1,3,4-oxadiazol-2-yl]-2-(4-hydroxyphenyl)-4-quinolinecarboxamide], the inhibition at 100 µM worked out at 73%.

Consider `Cc1ccc(-c2cc(C(=O)Nc3nnc(-c4ccco4)o3)c3ccccc3n2)c(C)c1` [Ia-56, N-[5-(2-furyl)-1,3,4-oxadiazol-2-yl]-2-(2,4-dimethylphenyl)-4-quinolinecarboxamide], for which the inhibition at 100 µM was found to be 99%.

On to `O=C(Nc1nnc(-c2ccco2)o1)c1cc(-c2ccco2)nc2c(Cl)cccc12` [Ia-79, 8-chloro-2-(2-furyl)-N-[5-(2-furyl)-1,3,4-oxadiazol-2-yl]-4-quinolinecarboxamide], for which the inhibition at 100 µM was greater than 100%.

As for `O=C(Nc1nnc(-c2ccc([N+](=O)[O-])o2)o1)c1cc(-c2ccccc2)nc2ccccc12` [Ia-84, N-[5-(5-nitro-2-furyl)-1,3,4-oxadiazol-2-yl]-2-phenyl-4-quinolinecarboxamide], the inhibition at 100 µM was 56%.

Turning to `CN(C)CCOc1ccc2nc(-c3ccccc3)cc(C(=O)Nc3nnc(-c4ccco4)o3)c2c1` [Ia-88, N-[5-(2-furyl)-1,3,4-oxadiazol-2-yl]-6-[2-(dimethylamino)ethoxy]-2-phenyl-4-quinolinecarboxamide], the inhibition at 100 µM amounted to 76%.

With `COCCOc1ccc2nc(-c3ccccc3)cc(C(=O)Nc3nnc(-c4ccco4)o3)c2c1` [Ia-89, N-[5-(2-furyl)-1,3,4-oxadiazol-2-yl]-6-(2-methoxyethoxy)-2-phenyl-4-quinolinecarboxamide], the inhibition at 100 µM is greater than 100%.

In the case of `O=C(Nc1nnc(-c2ccco2)o1)c1cc(-c2ccccc2)nc2ccc(OCc3ccccc3)cc12` [Ia-90, 6-benzyloxy-N-[5-(2-furyl)-1,3,4-oxadiazol-2-yl]-2-phenyl-4-quinolinecarboxamide], the inhibition at 100 µM is greater than 100%.

On to `CCCC(=O)Nc1ccc2nc(-c3ccccc3)cc(C(=O)Nc3nnc(-c4ccco4)o3)c2c1` [Ia-94, 6-butyrylamino-N-[5-(2-furyl)-1,3,4-oxadiazol-2-yl]-2-phenyl-4-quinolinecarboxamide], for which the inhibition at 100 µM was found to be 89%.

Take `O=C(Nc1nnc(-c2ccccc2)o1)c1cc(-c2cccs2)nc2ccccc12` [Ia-j, N-(5-phenyl-1,3,4-oxadiazol-2-yl)-2-(2-thienyl)-4-quinolinecarboxamide]: the inhibition at 100 µM was determined as 91%.

As for `O=C(Nc1nnc(-c2ccco2)s1)c1cc(-c2ccccc2)nc2ccccc12` [Ib-4, N-[5-(2-furyl)-1,3,4-thiadiazol-2-yl]-2-phenyl-4-quinolinecarboxamide], the inhibition at 100 µM amounted to 58%.

Consider `COc1ccc(OC)c(-c2cc(C(=O)Nc3nnc(-c4ccncc4)s3)c3ccccc3n2)c1` [Ib-c, 2-(2,5-dimethoxyphenyl)-N-[5-(4-pyridyl)-1,3,4-thiadiazol-2-yl]-4-quinolinecarboxamide], for which the inhibition at 100 µM is greater than 100%.

Regarding `O=C(Nc1nnc(-c2ccncc2)s1)c1cc(-c2cccnc2)nc2ccc(Cl)cc12` [Ib-d, 6-chloro-2-(3-pyridyl)-N-[5-(4-pyridyl)-1,3,4-thiadiazol-2-yl]-4-quinolinecarboxamide], the inhibition at 100 µM was found to be 73%.

As to `Cc1ccc(-c2cc(C(=O)Nc3nnc(-c4ccncc4)s3)c3ccccc3n2)o1` [Ib-e, 2-(5-methyl-2-furyl)-N-[5-(4-pyridyl)-1,3,4-thiadiazol-2-yl]-4-quinolinecarboxamide], the inhibition at 100 µM was found to be 85%.

With `Cc1cc(-c2cc(C(=O)Nc3nnc(-c4ccncc4)s3)c3cc(Cl)ccc3n2)c(C)s1` [Ib-f, 6-chloro-2-(2,5-dimethyl-3-thienyl)-N-[5-(4-pyridyl)-1,3,4-thiadiazol-2-yl]-4-quinolinecarboxamide], the inhibition at 100 µM stood at 100%.

The assay is the same for the next values; noted with them: compound at 100 μM; STAT3 reporter HeLa stable cell line; oncostatin M 10 ng/mL, 4 hours.
As for `COc1ccc2cc(-c3cc(C(=O)Nc4nnc(-c5ccco5)o4)c4ccccc4n3)ccc2c1` [Ia-61, N-[5-(2-furyl)-1,3,4-oxadiazol-2-yl]-2-(6-methoxy-2-naphthyl)-quinolinecarboxamide], the “STAT3 transcription inhibitory activity (%)” value is listed as greater than 100%.

On to “N-[(5-phenyl-1,3,4-oxadiazol-2-yl)methyl]-4-quinolinecarboxamide [Ia-10]”, for which the “STAT3 transcription inhibitory activity (%)” value is greater than 100%.
